According to patent publication US20040198789A1, “Lercanidipine/ARB/diuretic therapeutic combinations” (Recordati Ireland Limited, priority 2003, published 2004):
Several values for one entry are separate records, joined by “and”; a condition that tells them apart may be missing. Identical values can stand only once.

Tests used:
[1] = cited from earlier work
[2] = following oral administration; cited from earlier work
[3] = system: reperfusion-induced hypertension in uninephrectomized anesthetized rats; assay: Model of acute angiotensin-mediated renal hypertension in anesthetized rats (SBP, DBP, HR); type: in vivo, rat
Description: Male Sprague-Dawley rats, weighing 250-300 g, were anaesthetized with pentobarbital sodium (35 mg/kg, i.p.) and placed on a thermic blanket. The temperature was maintained at 37° C. with a thermoregulator via a rectal probe. The animals were tracheotomized to facilitate spontaneous breathing. A polyethylene catheter was placed in the left jugular vein to allow for infusion of pentobarbital sodium to maintain anesthesia. The left femoral vein and artery were cannulated with polyethylene catheters to allow drugs administration and to monitor blood pressure, respectively.
Animals then underwent a left nephrectomy by excising the left kidney via a flank incision. The right kidney and renal vein, artery and ureter were then exposed via a right retroperitoneal incision, under a dissecting microscope. Silk threads were placed around both vessels and ureter. The cavity was then covered with Vaseline oil.
After 30-60 minutes of basal recordings of arterial blood pressure and heart rate the threads around the renal vessels and ureter were tied close to the renal hilum to induce complete renal ischemia of the right kidney. After 2 hours of ischemia, the threads were removed to allow renal reperfusion and urine output.
For irbesartan experiments and comparisons, control (vehicle) or drug (irbesartan (100 μg/kg), lercanidipine (7.5 μg/kg), or both lercanidipine (7.5 μg/kg) and irbesartan (100 μg/kg)) were administered intravenously at 5 min after reperfusion was begun.
Results were expressed as mean values ±S.E. (in the tables) and in percent change observed.
To evaluate the effects of drugs administration on blood pressure and heart rate within each group, two-way ANOVA and Dunnet's test were used (“within treatment”). To evaluate the statistical differences among the treatment groups, data are analyzed using a three-way ANOVA (analysis of variance) with repeated measures on factor time and pre-planned multiple comparisons. The analysis was performed using, for each treatment, delta values (log transformation). […] (“between treatments”).

[4] = system: isolated rat aorta; conditions: in vitro; even after repeated wash-out during 6 hours; cited from earlier work
[5] = system: reperfusion-induced hypertension in uninephrectomized anesthetized rats; assay: Model of acute angiotensin-mediated renal hypertension in anesthetized rats (SBP, DBP, HR); type: in vivo, rat; remark: listed apart in the source
[6] = between treatments, three-way ANOVA on delta values, lercanidipine 7.5 μg/kg, irbesartan 100 μg/kg i.v.
[7] = between treatments, three-way ANOVA on delta values, lercanidipine 7.5 μg/kg, olmesartan free acid 10 μg/kg i.v.
[8] = between treatments, three-way ANOVA on delta values, lercanidipine 10 μg/kg, valsartan 30 μg/kg i.v.
[9] = lercanidipine 7.5 μg/kg i.v., n=6, time 0 min, basal, pre-drug
[10] = lercanidipine 7.5 μg/kg i.v., n=6, time 120 min, end of ischemia, pre-drug
[11] = lercanidipine 7.5 μg/kg i.v., n=6, time 130 min, 5 min after drug
[12] = lercanidipine 7.5 μg/kg i.v., n=6, time 135 min, 10 min after drug
[13] = lercanidipine 7.5 μg/kg i.v., n=6, time 150 min, 25 min after drug
[14] = lercanidipine 7.5 μg/kg i.v., n=6, time 165 min, 40 min after drug
[15] = lercanidipine 7.5 μg/kg i.v., n=6, time 180 min, 55 min after drug
[16] = lercanidipine 7.5 μg/kg i.v., n=6, time […], 5 min reperfusion, pre-drug
[17] = lercanidipine 10 μg/kg i.v., n=5, time 0 min, basal, pre-drug
[18] = lercanidipine 10 μg/kg i.v., n=5, time 120 min, end of ischemia, pre-drug
[19] = lercanidipine 10 μg/kg i.v., n=5, time 130 min, 5 min after drug
[20] = lercanidipine 10 μg/kg i.v., n=5, time 135 min, 10 min after drug
[21] = lercanidipine 10 μg/kg i.v., n=5, time 150 min, 25 min after drug
[22] = lercanidipine 10 μg/kg i.v., n=5, time 165 min, 40 min after drug
[23] = lercanidipine 10 μg/kg i.v., n=5, time 180 min, 55 min after drug
[24] = lercanidipine 10 μg/kg i.v., n=5, time […], 5 min reperfusion, pre-drug
[25] = within treatment vs […], lercanidipine 10 μg/kg or valsartan 30 μg/kg i.v.

COC(=O)C1=C(C)NC(C)=C(C(=O)OC(C)(C)CN(C)CCC(c2ccccc2)c2ccccc2)C1c1cccc([N+](=O)[O-])c1 (stereo not drawn) [lercanidipine, methyl 1,1,N-trimethyl-N-(3,3-diphenylpropyl)-2-aminoethyl 1,4-dihydro-2,6-dimethyl-4-(3-nitrophenyl)pyridine-3,5-dicarboxylate]
tachycardia reported as a side effect, patients ([1]; hypertensive patients on lercanidipine): 0-9% | heart palpitations, patients reporting ([1]; patients administered lercanidipine): 0-9% | time of peak serum/plasma concentration [2]: 2 to 3 h | Diastolic blood pressure: general differences among groups: p vs Irbesartan [3, 6]: ns | Diastolic blood pressure: general differences among groups: p vs Vehicle [3, 6]: p < 0.05 | Heart rate differences among groups: p vs Irbesartan [3, 6]: p < 0.001 | Heart rate differences among groups: p vs Vehicle [3, 6]: p < 0.01 | Systolic blood pressure differences among groups: p vs Irbesartan [3, 6]: ns | Systolic blood pressure differences among groups: p vs Vehicle [3, 6]: ns | Diastolic blood pressure differences among treatment groups: p vs Olmesartan [3, 7]: ns | Diastolic blood pressure differences among treatment groups: p vs Vehicle [3, 7]: p < 0.05 | Heart rate differences among treatment groups: p vs Olmesartan [3, 7]: p < 0.001 | Heart rate differences among treatment groups: p vs Vehicle [3, 7]: p < 0.01 | Systolic blood pressure differences among treatment groups: p vs Olmesartan [3, 7]: ns | Systolic blood pressure differences among treatment groups: p vs Vehicle [3, 7]: ns | Diastolic blood pressure: general differences among groups: p vs Valsartan [3, 8]: ns | Heart rate: general differences among groups: p vs Valsartan [3, 8]: p < 0.01 | Systolic blood pressure: general differences among groups: p vs Valsartan [3, 8]: ns | DBP [3, 9]: 75.7 ± 1.7 mmHg | HR [3, 9]: 383.3 ± 12.0 beats/min | SBP [3, 9]: 120.7 ± 3.5 mmHg | DBP [3, 10]: 63.3 ± 2.9 mmHg | HR [3, 10]: 381.7 ± 7.5 beats/min | SBP [3, 10]: 105.2 ± 5.3 mmHg | HR [3, 11]: 434.2 ± 15.3 b beats/min | SBP [3, 11]: 136.7 ± 7.4 mmHg | HR [3, 12]: 426.7 ± 14.3 b beats/min | SBP [3, 12]: 140.7 ± 7.1 mmHg and 140.7 ± 7.1b mmHg | HR [3, 13]: 411.7 ± 12.8 b beats/min | SBP [3, 13]: 143.2 ± 7.2 mmHg | HR [3, 14]: 411.7 ± 15.6 b beats/min | SBP [3, 14]: 144.5 ± 9.1 mmHg | HR [3, 15]: 410.0 ± 18.3 b beats/min | SBP [3, 15]: 136.8 ± 8.4 mmHg and 136.8 ± 8.4b mmHg | DBP [3, 16]: 117.2 ± 4.4 mmHg | HR [3, 16]: 346.7 ± 8.4 beats/min | SBP [3, 16]: 160.7 ± 8.5 mmHg | effect on heart rate (in words) ([3]; lercanidipine 7.5 μg/kg, irbesartan 100 μg/kg i.v., alone or together): increase in heart rate | effect on blood pressure (in words) ([3]; lercanidipine 7.5 μg/kg, irbesartan 100 μg/kg i.v., alone or together, 5 min after reperfusion): statistically significant decrease in both systolic and diastolic blood pressure | effect on heart rate (in words) ([3]; lercanidipine 7.5 μg/kg, olmesartan free acid 10 μg/kg i.v., alone or together): increase in heart rate | DBP [3, 17]: 69.8 ± 4.1 mmHg | HR [3, 17]: 350.0 ± 3.2 beats/min | SBP [3, 17]: 133.8 ± 6.1 mmHg | DBP [3, 18]: 64.6 ± 4.5 mmHg | HR [3, 18]: 350.0 ± 3.5 beats/min | SBP [3, 18]: 134.8 ± 6.2 mmHg | DBP [3, 19]: 77.4 ± 4.1 b mmHg | HR [3, 19]: 434.0 ± 27.9 b beats/min | SBP [3, 19]: 149.2 ± 5.4 mmHg | DBP [3, 20]: 77.8 ± 3.2 b mmHg | HR [3, 20]: 438.0 ± 22.2 b beats/min | SBP [3, 20]: 145.4 ± 5.0 b mmHg | DBP [3, 21]: 76.4 ± 7.2 b mmHg | HR [3, 21]: 425.0 ± 14.7 b beats/min | SBP [3, 21]: 143.8 ± 5.5 b mmHg | DBP [3, 22]: 78.4 ± 8.4 b mmHg | HR [3, 22]: 423.0 ± 15.1 b beats/min | SBP [3, 22]: 138.2 ± 8.6 b mmHg | DBP [3, 23]: 76.2 ± 7.3 b mmHg | HR [3, 23]: 421.0 ± 14.7 b beats/min | SBP [3, 23]: 138.8 ± 4.9 b mmHg | DBP [3, 24]: 105.6 ± 5.0 mmHg | HR [3, 24]: 345.0 ± 5.5 beats/min | SBP [3, 24]: 167.6 ± 4.0 mmHg | time of statistically significant decrease in diastolic blood pressure after administration ([3]; within treatment vs […], lercanidipine 7.5 μg/kg or olmesartan free acid 10 μg/kg i.v.): 5 to 55 min | time of statistically significant decrease in systolic blood pressure after administration [3, 25]: 10 to 55 min | isolated rat aorta response to high K+ [4]: attenuated | Diastolic blood pressure: general differences among groups: p vs Vehicle [5, 8]: p < 0.01 | Heart rate: general differences among groups: p vs Vehicle [5, 8]: p < 0.05 | Systolic blood pressure: general differences among groups: p vs Vehicle [5, 8]: ns | effect on heart rate (in words) ([5]; lercanidipine 10 μg/kg, valsartan 30 μg/kg i.v., alone or together): positive chronotropic effect | time of statistically significant decrease in diastolic blood pressure after administration [5, 25]: 5 to 55 min
